Where two headings read alike, the source gives them in different places.
Tests used:
WiDr cells = assay: Growth inhibition, SRB assay, WiDr; format: cell-based; details: Homo sapiens, 72 h, read-out: IC50, 72 h drug exposure
Method: (§1) Briefly, cells were seeded in triplicate in 96-well plates at their pre-established optimal density (CHO cells: 2,500 cells/100 μL; WiDr and HT29: 3,500 cells/100 μL; WiDr-LF/LV, LS174T: 5,000 cells/100 μL; CaCo2, CaCo2-LF/LV, H292, H28 and MSTO-211H: 6,000 cells/100 μL; H460, SW948 and SW1398: 7,000 cells/100 μL) and were allowed to attach for ∼ 24 h at 37°C in 5% CO2 and 100% humidified incubator. Thereafter, 100 μL of drug dilution without LV, or with 5 μM l-LV/5 μM d-LV/10 μM dL-LV (or any LV alone) were added. Cells were allowed to grow for 72 h at 37°C in 5% CO2 and 100% humidity. The t = 0 h control plate consisted of cells plated on the same day as the other cells, but after 24 h at 37°C in 5% CO2 and 100% humidity, only 100 μL medium was added and the cells were fixed immediately with 50% trichloroacetic acid (TCA) in milliQ water (25 μL per well) and put at 4°C for at least 1 h. Plates were washed five times with water and dried. Cells were stained with the SRB protein dye (0.4% (w/v) in 1% acetic acid. Excess dye was washed away four times with 1% acetic acid and plates were dried again. 200 μL of Tris (10 mM Tris (hydroxymethyl)-aminomethane in MQ) was added and optical density (OD) was read at 492 nm after mixing 2–3 min on a plate shaker.

WiDr LF/LV cells = assay: Growth inhibition, SRB assay, WiDr LF/LV; format: cell-based, human; details: Homo sapiens, WiDr, 72 h, WiDr LF/LV, SRB, read-out: IC50, 72 h drug exposure
Method: as §1

CaCo2 cells = assay: Growth inhibition, SRB assay, CaCo2; format: cell-based; details: Homo sapiens, Caco-2, 72 h, read-out: IC50, 72 h drug exposure
Method: as §1

CaCo2 LF/LV cells = assay: Growth inhibition, SRB assay, CaCo2 LF/LV; format: cell-based; details: Homo sapiens, Caco-2, 72 h, read-out: IC50, 72 h drug exposure
Method: as §1

LS174T cells = assay: Growth inhibition, SRB assay, LS174T; format: cell-based; details: Homo sapiens, 72 h, read-out: IC50, 72 h drug exposure
Method: as §1

HT29 cells = assay: Growth inhibition, SRB assay, HT29; format: cell-based; details: Homo sapiens, HT-29, 72 h, read-out: IC50, 72 h drug exposure
Method: as §1

SW948 cells = assay: Growth inhibition, SRB assay, SW948; format: cell-based; details: Homo sapiens, SW948, 72 h, read-out: IC50, 72 h drug exposure
Method: as §1

SW1398 cells = assay: Growth inhibition, SRB assay, SW1398; format: cell-based; details: Homo sapiens, 72 h, read-out: IC50, 72 h drug exposure
Method: as §1

colon cancer cell lines = assay: Growth inhibition, SRB assay, panel of colon cancer cell lines; format: cell-based, human; details: Homo sapiens, read-out: IC50 range over colon cancer cell lines
Method: as §1

[1] = target: T1, thymidylate synthase (TS) (Homo sapiens, UniProt P04818); assay: TS in situ inhibition assay (TSIA) in colon cancer cells; format: cell-based
T1 construct: The principle of this assay is the measurement of TS enzymatic activity in intact cells; endogenous in cells; host or cells: colon cancer cell lines (WiDr, WiDr-LF, SW1398, LS174T and others)
T1 sequence (P04818 2-313 limits assumed): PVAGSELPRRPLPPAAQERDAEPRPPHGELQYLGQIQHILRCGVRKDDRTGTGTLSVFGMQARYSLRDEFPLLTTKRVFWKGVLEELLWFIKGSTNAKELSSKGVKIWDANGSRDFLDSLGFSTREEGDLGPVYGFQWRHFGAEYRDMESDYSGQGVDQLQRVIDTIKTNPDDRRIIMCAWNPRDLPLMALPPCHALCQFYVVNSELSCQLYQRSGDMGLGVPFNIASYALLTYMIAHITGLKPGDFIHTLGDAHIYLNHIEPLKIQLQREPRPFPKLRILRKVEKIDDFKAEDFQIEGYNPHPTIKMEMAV
From the text: The principle of this assay is the measurement of TS enzymatic activity in intact cells. Intact cells will readily internalize radioactively labelled [5-^3H]-deoxycytidine, which will be rapidly converted by deoxycytidine kinase (dCK) to [5-^3H]-dCMP and subsequently deaminated to [5-^3H]-dUMP, which will then serve as a substrate in the TS catalysed reaction to dTMP and ^3H2O; the quantity of ^3H2O formed over time is a measure of intracellular TS activity. […] This is because dCK has a higher, cell cycle independent activity than thymidine kinase 1, which is a cell cycle dependent enzyme. For this purpose, cancer cells were cultured in six wells plates at 2.5 × 10^5 cells/2 mL/well for 24 h. Thereafter, cells were exposed to drugs with or without the LV formulations at the indicated concentrations for 4 h. 2 h before the end of the incubation period [5-^3H]-2′-deoxycytidine (final concentration 1 µM) was added to the cells. […] In most cell lines we quantified dCK activity and dCK mRNA levels.

H28 cells = assay: Growth inhibition, SRB assay, H28 (MPM); format: cell-based, human; details: H28, SRB, read-out: IC50, 72 h drug exposure
Method: as §1

MSTO-211H cells = assay: Growth inhibition, SRB assay, MSTO-211H (MPM); format: cell-based, human; details: SRB, read-out: IC50, 72 h drug exposure
Method: as §1

H460 cells = assay: Growth inhibition, SRB assay, H460 (NSCLC); format: cell-based, human; details: H460, SRB, read-out: IC50, 72 h drug exposure
Method: as §1

H292 cells = assay: Growth inhibition, SRB assay, H292 (NSCLC); format: cell-based, human; details: H292, SRB, read-out: IC50, 72 h drug exposure
Method: as §1

NSCLC and MPM cell lines = assay: Growth inhibition, SRB assay, NSCLC and MPM cell lines; format: cell-based, human; details: 5 µM l-LV, H28, MSTO-211H, H460, H292
Method: as §1

CHO/C5 cells = assay: Growth inhibition, SRB assay, CHO/C5 (RFC-deficient); format: cell-based, Chinese hamster
Method: as §1

CHO/C5-MOCK cells = assay: Growth inhibition, SRB assay, CHO/C5-MOCK (empty vector); format: cell-based, Chinese hamster
Method: as §1

CHO/C5-PCFT cells = assay: Growth inhibition, SRB assay, CHO/C5-PCFT (PCFT-transfected); format: cell-based, Chinese hamster
Method: as §1

CHO/C5-hRFC cells = assay: Growth inhibition, SRB assay, CHO/C5-hRFC (human RFC transfected); format: cell-based, Chinese hamster; details: CHO/C5-hRFC
Method: as §1

AA8 cells = assay: Growth inhibition, SRB assay, AA8 (parental CHO); format: cell-based, Chinese hamster; details: for IC50: AA8 parental CHO
Method: as §1

[2] = Cricetulus griseus, antifolate alone

## O=c1[nH]cc(F)c(=O)[nH]1 [5-FU, 5-fluorouracil]
WiDr cells; 5-FU + 5 µM d-LV
  IC50: 4.21 ± 0.57 µM
WiDr cells; 5-FU + 5 µM l-LV
  IC50: 1.95 ± 0.2 µM
WiDr cells; 5-FU + 10 µM dl-LV
  IC50: 2.91 ± 1.06 µM
WiDr cells; 5-FU alone
  IC50: 4.56 ± 0.34 µM
WiDr LF/LV cells; 5-FU + 5 µM d-LV
  IC50: 2.78 ± 0.34 µM
WiDr LF/LV cells; 5-FU + 5 µM l-LV
  IC50: 1.77 ± 0.15 µM
WiDr LF/LV cells; 5-FU + 10 µM dl-LV
  IC50: 1.75 ± 0.08 µM
WiDr LF/LV cells; 5-FU alone
  IC50: 1.83 ± 0.18 µM
CaCo2 cells; 5-FU + 5 µM d-LV
  IC50: 3.04 ± 0.66 µM
CaCo2 cells; 5-FU + 5 µM l-LV
  IC50: 3.04 ± 0.39 µM
CaCo2 cells; 5-FU + 10 µM dl-LV
  IC50: 3.63 ± 0.38 µM
CaCo2 cells; 5-FU alone
  IC50: 3.08 ± 0.27 µM
CaCo2 LF/LV cells; 5-FU + 5 µM d-LV
  IC50: 1.96 ± 0.62 µM
CaCo2 LF/LV cells; 5-FU + 5 µM l-LV
  IC50: 1.78 ± 0.18 µM
CaCo2 LF/LV cells; 5-FU + 10 µM dl-LV
  IC50: 1.78 ± 0.39 µM
CaCo2 LF/LV cells; 5-FU alone
  IC50: 2.05 ± 0.28 µM
LS174T cells; 5-FU + 5 µM d-LV
  IC50: 10.5 ± 0.8 µM
LS174T cells; 5-FU + 5 µM l-LV
  IC50: 8.11 ± 0.71 µM
LS174T cells; 5-FU + 10 µM dl-LV
  IC50: 8.95 ± 0.72 µM
LS174T cells; 5-FU alone
  IC50: 10.5 ± 0.82 µM
HT29 cells; 5-FU + 5 µM d-LV
  IC50: 7.5 ± 0.5 µM
HT29 cells; 5-FU + 5 µM l-LV
  IC50: 3.3 ± 0.2 µM
HT29 cells; 5-FU + 10 µM dl-LV
  IC50: 3.8 ± 0.3 µM
HT29 cells; 5-FU alone
  IC50: 7.9 ± 2.65 µM
SW948 cells; 5-FU + 5 µM d-LV
  IC50: 3.85 ± 0.66 µM
SW948 cells; 5-FU + 5 µM l-LV
  IC50: 2.63 ± 0.4 µM
SW948 cells; 5-FU + 10 µM dl-LV
  IC50: 2.78 ± 0.29 µM
SW948 cells; 5-FU alone
  IC50: 3.65 ± 0.41 µM
SW1398 cells; 5-FU + 5 µM d-LV
  IC50: 2.4 ± 0.68 µM
SW1398 cells; 5-FU + 5 µM l-LV
  IC50: 1.28 ± 0.18 µM
SW1398 cells; 5-FU + 10 µM dl-LV
  IC50: 1.44 ± 0.37 µM
SW1398 cells; 5-FU alone
  IC50: 2.99 ± 0.47 µM
Colon cancer cell lines; 5-FU + 5 µM d-LV
  IC50: 2 to 10.5 µM
Colon cancer cell lines; 5-FU + 5 µM l-LV
  IC50: 1.3 to 8.1 µM
Colon cancer cell lines; 5-FU + 10 µM dl-LV
  IC50: 1.4 to 8.9 µM
Colon cancer cell lines; 5-FU only
  IC50: 1.8 to 10.5 µM
[1]; SW1398, 4 h, 5FU alone
  IC50: 4.14 ± 0.24 µM
[1]; WiDr, 4 h, 5FU alone
  IC50: 3.76 ± 0.35 µM
[1]; WiDr-LF, 4 h, 5FU alone
  IC50: 3.67 ± 0.33 µM

## Nc1nc2[nH]cc(CCc3ccc(C(=O)N[C@@H](CCC(=O)O)C(=O)O)cc3)c2c(=O)[nH]1 [PMX, pemetrexed]
H28 cells; antifolate + 5 µM l-LV
  IC50: 34.3 µM
H28 cells; Homo sapiens, NCI-H28, 72 h, antifolate alone
  IC50: 0.28 ± 0.048 µM
MSTO-211H cells; Homo sapiens, 72 h, antifolate alone
  IC50: 0.143 ± 0.014 µM
MSTO-211H cells; antifolate + 5 µM l-LV
  IC50: 21 µM
H460 cells; antifolate + 5 µM l-LV
  IC50: 52.7 µM
H460 cells; Homo sapiens, NCI-H460, 72 h, antifolate alone
  IC50: 0.302 ± 0.012 µM
H292 cells; antifolate + 5 µM l-LV
  IC50: 17 µM
H292 cells; Homo sapiens, NCI-H292, 72 h, antifolate alone
  IC50: 0.103 ± 0.012 µM
NSCLC and MPM cell lines
  l-LV-mediated increase in the IC50 values, range over cell lines: 144-211 fold
CHO/C5 cells; [2]
  IC50: 3.1 µM
CHO/C5 cells; antifolate + 5 µM l-LV
  IC50: 59.6 µM
CHO/C5-MOCK cells; [2]
  IC50: 42 µM
CHO/C5-MOCK cells; antifolate + 5 µM l-LV
  IC50: > 100 µM
CHO/C5-PCFT cells; [2]
  IC50: 10.6 µM
CHO/C5-PCFT cells; antifolate + 5 µM l-LV
  IC50: 49.2 µM
CHO/C5-hRFC cells; antifolate + 5 µM l-LV
  IC50: 29.3 µM
CHO/C5-hRFC cells; [2]
  IC50: 0.046 µM
AA8 cells; AA8 cells, 5 µM l-LV
  Protection by l-LV, increase of the IC50 value: 94 fold
AA8 cells; antifolate + 5 µM l-LV
  IC50: 3.5 µM
AA8 cells; [2]
  IC50: 0.037 µM
[1]; WiDr, 4 h, antifolate alone
  IC50: 0.175 ± 0.075 µM
